Test results: US12599136B2, “Substituted isophthalic acid diamides and their use as herbicides” (Bayer Aktiengesellschaft, priority 2020, dated 2026)

What was measured:
Assay type in all cases: in vivo
Alopecurus myosuroides [1] = assay: Pre-emergence herbicidal action against ALOMY; conditions: visual score after 3 weeks vs untreated controls
Outline: (§1)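 Pre-emergence soil-surface spray of formulated compound (WP or EC; 600 to 800 l/ha; 0.2% wetting agent) over seeds sown in sandy loam. After 3 weeks under greenhouse conditions, damage is estimated visually in percent against untreated plants.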

Abutilon theophrasti [2] = assay: Post-emergence herbicidal action against ABUTH
Outline: (§2)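 Spray, one-leaf stage: WP or EC compound in water, 600–800 l/ha, 0.2% wetting agent. Plants held about 3 weeks in the greenhouse, then visually rated in percent of kill compared with untreated controls.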

Abutilon theophrasti [3] = assay: Pre-emergence herbicidal action against ABUTH; conditions: visual score after 3 weeks vs untreated controls
Outline: as §1

Lolium rigidum [4] = assay: Post-emergence herbicidal action against LOLRI; conditions: 80 g/ha
Outline: as §2

Setaria viridis [5] = assay: Post-emergence herbicidal action against SETVI; conditions: visual assessment about 3 weeks after treatment
Outline: as §2

Avena fatua [6] = assay: Pre-emergence herbicidal action against AVEFA; conditions: visual score after 3 weeks vs untreated controls
Outline: as §1

Setaria viridis [7] = assay: Pre-emergence herbicidal action against SETVI
Outline: as §1

Amaranthus retroflexus [8] = assay: Pre-emergence herbicidal action against AMARE; conditions: visual score after 3 weeks vs untreated controls
Outline: as §1

Cyperus esculentus [9] = assay: Pre-emergence herbicidal action against CYPES; conditions: visual score after 3 weeks vs untreated controls
Outline: as §1

Veronica persica [10] = assay: Pre-emergence herbicidal action against VERPE
Outline: as §1

Hordeum murinum [11] = assay: Pre-emergence herbicidal action against HORMU; conditions: 320 g/ha; visual score after 3 weeks vs untreated controls
Outline: as §1

Stellaria media [12] = assay: Post-emergence herbicidal action against STEME; conditions: visual assessment about 3 weeks after treatment
Outline: as §2

Viola tricolor [13] = assay: Pre-emergence herbicidal action against VIOTR
Outline: as §1

Stellaria media [14] = assay: Pre-emergence herbicidal action against STEME
Outline: as §1

Cyperus esculentus [15] = assay: Post-emergence herbicidal action against CYPES; conditions: visual assessment about 3 weeks after treatment
Outline: as §2

Lolium rigidum [16] = assay: Pre-emergence herbicidal action against LOLRI; conditions: 320 g/ha
Outline: as §1

Viola tricolor [17] = assay: Post-emergence herbicidal action against VIOTR
Outline: as §2

Amaranthus retroflexus [18] = assay: Post-emergence herbicidal action against AMARE; conditions: visual assessment about 3 weeks after treatment
Outline: as §2

Avena fatua [19] = assay: Post-emergence herbicidal action against AVEFA; conditions: visual assessment about 3 weeks after treatment
Outline: as §2

Echinochloa crus-galli [20] = assay: Post-emergence herbicidal action against ECHCG; conditions: visual assessment about 3 weeks after treatment
Outline: as §2

Echinochloa crus-galli [21] = assay: Pre-emergence herbicidal action against ECHCG; conditions: visual score after 3 weeks vs untreated controls
Outline: as §1

Veronica persica [22] = assay: Post-emergence herbicidal action against VERPE; conditions: visual assessment about 3 weeks after treatment
Outline: as §2

Polygonum convolvulus [23] = assay: Post-emergence herbicidal action against POLCO; conditions: 80 g/ha, visual assessment about 3 weeks after treatment
Outline: as §2

Polygonum convolvulus [24] = assay: Pre-emergence herbicidal action against POLCO; conditions: 320 g/ha
Outline: as §1

Pharbitis purpurea [25] = assay: Pre-emergence herbicidal action against PHBPU; conditions: 320 g/ha; visual score after 3 weeks vs untreated controls
Outline: as §1

Pharbitis purpurea [26] = assay: Post-emergence herbicidal action against PHBPU; conditions: visual assessment about 3 weeks after treatment
Outline: as §2

Matricaria inodora [27] = assay: Pre-emergence herbicidal action against MATIN; conditions: visual score after 3 weeks vs untreated controls
Outline: as §1

Matricaria inodora [28] = assay: Post-emergence herbicidal action against MATIN; conditions: visual assessment about 3 weeks after treatment
Outline: as §2

Alopecurus myosuroides [29] = assay: Post-emergence herbicidal action against ALOMY
Outline: as §2

Hordeum murinum [30] = assay: Post-emergence herbicidal action against HORMU
Outline: as §2

`CCn1nnnc1NC(=O)c1ccc(C(F)(F)F)c(C(=O)N(C)CC2CC2)c1Cl` [Example 2-126] was tested, and the “Pre-emergence action against ALOMY” value (Alopecurus myosuroides [1]; 80 g/ha) was 80%, the “Pre-emergence action against ALOMY” value (Alopecurus myosuroides [1]; 320 g/ha) was 100% and the “Post-emergence action against ABUTH” value (Abutilon theophrasti [2]; 5 g/ha) was 80%. The “Post-emergence action against ABUTH” value (Abutilon theophrasti [2]; 20 g/ha) was 100%, the “Post-emergence action against ABUTH” value (Abutilon theophrasti [2]; 80 g/ha) was 100% and the “Pre-emergence action against ABUTH” value (Abutilon theophrasti [3]; 20 g/ha) was 100%. For the same compound, the “Pre-emergence action against ABUTH” value (Abutilon theophrasti [3]; 80 g/ha) was 100%, the “Pre-emergence action against ABUTH” value (Abutilon theophrasti [3]; Dosage column 320 g/ha (heading prints 3200 g/ha)) was 100% and the “Post-emergence action against LOLRI in %” value (Lolium rigidum [4]) was 80%. The “Post-emergence action against SETVI in %” value (Setaria viridis [5]; 5 g/ha) was 100%, the “Post-emergence action against SETVI in %” value (Setaria viridis [5]; 20 g/ha) was 100% and the “Post-emergence action against SETVI in %” value (Setaria viridis [5]; 80 g/ha) was 100%. The “Pre-emergence action against AVEFA” value (Avena fatua [6]; 80 g/ha) was 80%, the “Pre-emergence action against AVEFA” value (Avena fatua [6]; 320 g/ha) was 100% and the “Pre-emergence action against SETVI” value (Setaria viridis [7]; 80 g/ha) was 100%. For the same compound, the “Pre-emergence action against SETVI” value (Setaria viridis [7]; 320 g/ha) was 100%, the “Pre-emergence action against AMARE” value (Amaranthus retroflexus [8]; 20 g/ha) was 90% and the “Pre-emergence action against AMARE” value (Amaranthus retroflexus [8]; 80 g/ha) was 100%. The “Pre-emergence action against AMARE” value (Amaranthus retroflexus [8]; 320 g/ha) was 100%, the “Pre-emergence action against CYPES” value (Cyperus esculentus [9]; 80 g/ha) was 80% and the “Pre-emergence action against CYPES” value (Cyperus esculentus [9]; 320 g/ha) was 90%. The “Pre-emergence action against VERPE” value (Veronica persica [10]; 80 g/ha) was 80%, the “Pre-emergence action against VERPE” value (Veronica persica [10]; 320 g/ha) was 90% and the “Pre-emergence action against HORMU” value (Hordeum murinum [11]) was 100%. The “Post-emergence action against STEME in %” value (Stellaria media [12]; 5 g/ha) was 100%, the “Post-emergence action against STEME in %” value (Stellaria media [12]; 20 g/ha) was 100% and the “Post-emergence action against STEME in %” value (Stellaria media [12]; 80 g/ha) was 100%. For the same compound, the “Pre-emergence action against VIOTR” value (Viola tricolor [13]; 20 g/ha) was 80%, the “Pre-emergence action against VIOTR” value (Viola tricolor [13]; 80 g/ha) was 100% and the “Pre-emergence action against VIOTR” value (Viola tricolor [13]; 320 g/ha) was 100%. For the same compound, the “Pre-emergence action against STEME” value (Stellaria media [14]; 20 g/ha) was 80%, the “Pre-emergence action against STEME” value (Stellaria media [14]; 320 g/ha) was 90% and the “Post-emergence action against CYPES in %” value (Cyperus esculentus [15]; 20 g/ha) was 80%. The “Post-emergence action against CYPES in %” value (Cyperus esculentus [15]; 80 g/ha) was 90%, the “Pre-emergence action against LOLRI” value (Lolium rigidum [16]) was 90% and the “Post-emergence action against VIOTR in %” value (Viola tricolor [17]; 5 g/ha) was 100%. The “Post-emergence action against VIOTR in %” value (Viola tricolor [17]; 20 g/ha) was 100%, the “Post-emergence action against VIOTR in %” value (Viola tricolor [17]; 80 g/ha) was 100% and the “Post-emergence action against AMARE in %” value (Amaranthus retroflexus [18]; 5 g/ha) was 100%. The “Post-emergence action against AMARE in %” value (Amaranthus retroflexus [18]; 20 g/ha) was 100%, the “Post-emergence action against AMARE in %” value (Amaranthus retroflexus [18]; 80 g/ha) was 100% and the “Post-emergence action against AVEFA in %” value (Avena fatua [19]; 20 g/ha) was 100%. The “Post-emergence action against AVEFA in %” value (Avena fatua [19]; 80 g/ha) was 100%, the “Post-emergence action against ECHCG in %” value (Echinochloa crus-galli [20]; 5 g/ha) was 90% and the “Post-emergence action against ECHCG in %” value (Echinochloa crus-galli [20]; 20 g/ha) was 100%. The “Post-emergence action against ECHCG in %” value (Echinochloa crus-galli [20]; 80 g/ha) was 100%, the “Pre-emergence action against ECHCG” value (Echinochloa crus-galli [21]; 80 g/ha) was 80% and the “Pre-emergence action against ECHCG” value (Echinochloa crus-galli [21]; 320 g/ha) was 100%. For the same compound, the “Post-emergence action against VERPE in %” value (Veronica persica [22]; 20 g/ha) was 80%, the “Post-emergence action against VERPE in %” value (Veronica persica [22]; 80 g/ha) was 90% and the “Post-emergence action against POLCO in %” value (Polygonum convolvulus [23]) was 80%. The “Pre-emergence action against POLCO” value (Polygonum convolvulus [24]) was 100%, the “Pre-emergence action against PHBPU” value (Pharbitis purpurea [25]) was 100% and the “Post-emergence action against PHBPU in %” value (Pharbitis purpurea [26]; 5 g/ha) was 90%. For the same compound, the “Post-emergence action against PHBPU in %” value (Pharbitis purpurea [26]; 20 g/ha) was 100%, the “Post-emergence action against PHBPU in %” value (Pharbitis purpurea [26]; 80 g/ha) was 100% and the “Pre-emergence action against MATIN” value (Matricaria inodora [27]; 20 g/ha) was 80%. For the same compound, the “Pre-emergence action against MATIN” value (Matricaria inodora [27]; 80 g/ha) was 90%, the “Pre-emergence action against MATIN” value (Matricaria inodora [27]; 320 g/ha) was 100% and the “Post-emergence action against MATIN in %” value (Matricaria inodora [28]; 5 g/ha) was 80%. For the same compound, the “Post-emergence action against MATIN in %” value (Matricaria inodora [28]; 20 g/ha) was 100%, the “Post-emergence action against MATIN in %” value (Matricaria inodora [28]; 80 g/ha) was 100% and the “Post-emergence action against ALOMY” value (Alopecurus myosuroides [29]; 5 g/ha) was 80%. The “Post-emergence action against ALOMY” value (Alopecurus myosuroides [29]; 20 g/ha) was 90%, the “Post-emergence action against ALOMY” value (Alopecurus myosuroides [29]; 80 g/ha) was 100% and the “Post-emergence action against HORMU in %” value (Hordeum murinum [30]; 5 g/ha) was 80%. The “Post-emergence action against HORMU in %” value (Hordeum murinum [30]; 20 g/ha) was 90% and the “Post-emergence action against HORMU in %” value (Hordeum murinum [30]; 80 g/ha) was 100%.
